Experimental data published in patent US7041683B2 (Wyeth, priority 2001, dated 2006).
Where a name gives a salt, the structure may show the parent alone. Read-outs that look alike come from different tables or passages of the source.

Key:
[1] = target: T1, serotonin transporter (Rattus norvegicus, UniProt P31652); assay: 3H-paroxetine displacement from male rat frontal cortical membranes (serotonin transporter affinity); assay type: binding
T1 construct: displace ^3H-paroxetine from male rat frontal cortical membranes; from tissue; host or cells: male rat frontal cortex membranes

[2] = target: T2, human 5-HT1A receptors (Homo sapiens, UniProt P08908); assay: [3H] 8-OHDPAT displacement from 5-HT1A receptor in stably transfected CHO cells; assay type: binding
T2 construct: expressed in transfected cells; host or cells: CHO cells
T2 sequence (P08908 1-422): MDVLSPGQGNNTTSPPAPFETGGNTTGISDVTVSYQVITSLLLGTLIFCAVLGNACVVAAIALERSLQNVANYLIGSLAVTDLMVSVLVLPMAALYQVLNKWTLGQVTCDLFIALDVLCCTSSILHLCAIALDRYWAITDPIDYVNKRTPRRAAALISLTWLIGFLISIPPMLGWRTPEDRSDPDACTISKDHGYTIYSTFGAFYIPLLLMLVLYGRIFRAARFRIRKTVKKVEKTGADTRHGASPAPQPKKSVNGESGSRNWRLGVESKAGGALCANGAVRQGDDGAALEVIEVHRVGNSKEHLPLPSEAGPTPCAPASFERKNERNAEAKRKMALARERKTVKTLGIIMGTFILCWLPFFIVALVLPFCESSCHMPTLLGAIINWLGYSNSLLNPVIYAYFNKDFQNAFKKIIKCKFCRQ
Excerpt: High affinity for the serotonin 5-HT1A receptor was established by testing the claimed compound's ability to displace [^3H] 8-OHDPAT (dipropylaminotetralin) from the 5-HT1A serotonin receptor following a modification of the procedure of Hall et al., J. Neurochem. 44, 1685 (1985) which utilizes CHO cells stably transfected with human 5-HT1A receptors.

[3] = target: T3, cloned human 5-HT1A receptors (Homo sapiens, UniProt P08908); assay: 35S-GTPγS binding assay, antagonist activity at 5-HT1A receptors; assay type: biochemical; parameters: 5-HT1A Function Imax (maximum inhibitory effect): unit not given here
T3 construct: expressed in transfected cells
T3 sequence (P08908 1-422): T2 sequence (P08908 1-422)
Method: Antagonist activity at 5-HT1A receptors was established by using a ^35S-GTPγS binding assay similar to that used by Lazareno and Birdsall (Br. J. Pharmacol. 109: 1120, 1993), in which the test compound's ability to affect the binding of ^35S-GTPγS to membranes containing cloned human 5-HT1A receptors was determined. Agonists produce an increase in binding whereas antagonists produce no increase but rather reverse the effects of the standard agonist 8-OHDPAT. The test compound's maximum inhibitory effect is represented as the Imax, while its potency is defined by the IC50.

[4] = 35S-GTPγS binding, reversal of the effects of the standard agonist 8-OHDPAT
[5] = 35S-GTPγS binding, reversal of the effects of the standard agonist 8-OHDPAT, read-out: 5-HT1A Function IC50

T1 sequence (P31652 whole entry): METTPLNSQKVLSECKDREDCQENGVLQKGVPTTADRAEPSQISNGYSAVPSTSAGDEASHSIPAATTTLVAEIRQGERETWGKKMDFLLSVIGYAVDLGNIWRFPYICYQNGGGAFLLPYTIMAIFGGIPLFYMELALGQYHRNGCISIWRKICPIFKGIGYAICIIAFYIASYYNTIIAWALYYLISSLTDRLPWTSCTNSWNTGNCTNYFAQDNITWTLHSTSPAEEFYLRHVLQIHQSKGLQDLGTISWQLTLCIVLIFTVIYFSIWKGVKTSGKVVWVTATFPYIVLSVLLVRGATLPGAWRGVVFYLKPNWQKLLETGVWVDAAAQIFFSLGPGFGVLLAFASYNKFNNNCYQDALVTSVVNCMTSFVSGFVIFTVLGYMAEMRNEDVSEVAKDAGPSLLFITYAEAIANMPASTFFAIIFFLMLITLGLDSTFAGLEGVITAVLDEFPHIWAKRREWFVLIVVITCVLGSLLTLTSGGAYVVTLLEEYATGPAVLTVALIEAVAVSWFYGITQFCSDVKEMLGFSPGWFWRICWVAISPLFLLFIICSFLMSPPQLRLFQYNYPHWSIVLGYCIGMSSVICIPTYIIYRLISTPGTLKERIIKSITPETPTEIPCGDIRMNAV

COc1cccc2c1OC(CN1CC=C(c3c[nH]c4ccc(C#N)cc34)CC1)CO2 (centres unmarked) (as salt: hydrochloride) (hydrate or solvate) [Example 7, 3-[1-(8-Methoxy-2,3-dihydro-benzo[1,4]dioxin-2-ylmethyl)-1,2,3,6-tetrahydro-pyridin-4-yl]-1H-indole-5-carbonitrile]
melting point: 235 to 238 °C

COc1ccc2[nH]cc(C3=CCN(CC4COc5ccccc5O4)CC3)c2c1 (centres unmarked) (as salt: oxalate) [Example 1, 5-Methoxy-3-[4-[1,2,3,6-tetrahydro-1-[2-(2,3-dihydro[1,4]benzodioxinyl)]methyl]pyridinyl]indole]
melting point: 120 °C (dec.)

Fc1ccc2[nH]cc(C3=CCN(CC4COc5ccccc5O4)CC3)c2c1 (centres unmarked) (as salt: oxalate) [Example 2, 5-Fluoro-3-[4-[1,2,3,6-tetrahydro-1-[2-(2,3-dihydro[1,4]benzodioxinyl)]methyl]pyridinyl]indole]
melting point: 145 °C (dec.)

COc1cccc2c1O[C@@H](CN1CC=C(c3c[nH]c4ccc(F)cc34)CC1)CO2 (as salt: oxalate) [Example 14, 5-Fluoro-3-[1-(8-methoxy-2,3-dihydro-benzo[1,4]dioxin-2-ylmethyl)-1,2,3,6-tetrahydro-pyradin-4-yl]-1H-indole]
melting point: 154 to 156 °C

COc1cccc2c1OC(CN1CC=C(c3c[nH]c4ccccc34)CC1)CO2 (centres unmarked) (hydrate or solvate) [Example 5, 3-[1-(8-Methoxy-2,3-dihydro-benzo[1,4]dioxin-2-ylmethyl)-1,2,3,6-tetrahydro-pyridin-4-yl]-1H-indole]
melting point: 203 to 205 °C

Nc1ccc2c(c1)OCC(CN1CC=C(c3c[nH]c4ccccc34)CC1)O2 (single isomer, unassigned) [Example 3, 3-[4-(1H-Indol-3-yl)-3,6-dihydro-2H-pyridin-1-ylmethyl]-2,3-dihydro-benzo[1,4]dioxin-7-ylamine]
melting point: 204 to 206 °C

Nc1ccc2c(c1)O[C@@H](CN1CC=C(c3c[nH]c4ccccc34)CC1)CO2 (single isomer, unassigned) [Example 3]
Ki [1]: 0.00116 µM
Ki [2]: 0.031 µM
IC50 [3]: 0.232 µM
5-HT1A Function Imax (maximum inhibitory effect) [3, 4]: (96.0)

COc1ccc2[nH]cc(C3=CCN(CC4COc5ccccc5O4)CC3)c2c1 (centres unmarked) [Example 1, 5-Methoxy-3-[4-[1,2,3,6-tetrahydro-1-[2-(2,3-dihydro[1,4]benzodioxinyl)]methyl]pyridinyl]indole]
Ki [2]: 0.0272 µM

Fc1ccc2[nH]cc(C3=CCN(CC4COc5ccccc5O4)CC3)c2c1 (centres unmarked) [Example 2, 5-Fluoro-3-[4-[1,2,3,6-tetrahydro-1-[2-(2,3-dihydro[1,4]benzodioxinyl)]methyl]pyridinyl]indole]
Ki [1]: 0.016 µM
Ki [2]: 0.0683 µM

Nc1ccc2c(c1)OCC(CN1CC=C(c3c[nH]c4ccccc34)CC1)O2 (centres unmarked) [Example 4, 2-[4-(1H-Indol-3-yl)-3,6-dihydro-2H-pyridin-1-ylmethyl]-2,3-dihydro-benzo[1,4]dioxin-6-ylamine]
Ki [1]: 0.00203 µM
Ki ([2]; displacement of [3H] 8-OHDPAT, CHO cells stably transfected with human 5-HT1A receptors, read-out: 5-HT1A Receptor Affinity KI): 0.132 µM
5-HT1A Function Imax (maximum inhibitory effect) [3, 4]: (90.0)
IC50 [3, 5]: 0.24 µM
melting point: 199 to 200 °C

COc1cccc2c1OC(CN1CC=C(c3c[nH]c4ccccc34)CC1)CO2 (centres unmarked) [Example 5, 3-[1-(8-Methoxy-2,3-dihydro-benzo[1,4]dioxin-2-ylmethyl)-1,2,3,6-tetrahydro-pyridin-4-yl]-1H-indole]
Ki [1]: 0.00017 µM
Ki [2]: 0.00285 µM
5-HT1A Function Imax (maximum inhibitory effect) [3, 4]: (89.3)
IC50 [3, 5]: 0.0573 µM

Nc1ccc2c(c1)OCC(CN1CC=C(c3c[nH]c4ccc(F)cc34)CC1)O2 (centres unmarked) [Example 6, 2-[4-(5-Fluoro-1H-indol-3-yl)-3,6-dihydro-2H-pyridin-1-ylmethyl]-2,3-dihydro-benzo[1,4]dioxin-6-ylamine]
Ki [1]: 0.00034 µM
Ki [2]: 0.0467 µM
5-HT1A Function Imax (maximum inhibitory effect) [3, 4]: (96.7)
IC50 [3, 5]: 0.411 µM
melting point: 172 to 174 °C

COc1cccc2c1OC(CN1CC=C(c3c[nH]c4ccc(C#N)cc34)CC1)CO2 (centres unmarked) [Example 7, 3-[1-(8-Methoxy-2,3-dihydro-benzo[1,4]dioxin-2-ylmethyl)-1,2,3,6-tetrahydro-pyridin-4-yl]-1H-indole-5-carbonitrile]
Ki [1]: 0.00104 µM
Ki [2]: 0.00795 µM
5-HT1A Function Imax (maximum inhibitory effect) [3, 4]: (100)
IC50 [3, 5]: 0.0825 µM

COc1cccc2c1O[C@@H](CN1CC=C(c3c[nH]c4ncccc34)CC1)CO2 [Example 8, 3-[1-(8-Methoxy-2,3-dihydro-benzo[1,4]dioxin-2-ylmethyl)-1,2,3,6-tetrahydro-pyridin-4-yl]-1H-pyrrole[2,3-b]pyridine]
Ki [1]: 0.039 µM
Ki [2]: 0.0043 µM
5-HT1A Function Imax (maximum inhibitory effect) [3, 4]: (94.0)
IC50 [3, 5]: 0.026 µM
melting point: 207 to 210 °C

COc1cccc2c1OC(CN1CC=C(c3c[nH]c4cc(F)ccc34)CC1)CO2 (centres unmarked) [Example 9, 6-Fluoro-3-[1-(8-methoxy-2,3-dihydro-1,4-benzodioxin-2-ylmethyl)-1,2,3,6-tetrahydro-pyridin-4-yl]-1H-indole]
Ki [1]: 0.0006 µM
Ki [2]: 0.00488 µM
5-HT1A Function Imax (maximum inhibitory effect) [3, 4]: (80.0)
IC50 [3, 5]: 0.272 µM
melting point: 184 to 185 °C

NC(=O)c1cccc2c1OC(CN1CC=C(c3c[nH]c4ccccc34)CC1)CO2 (centres unmarked) [Example 10, 3-[4-(1H-Indol-3-yl)-3,6-dihydro-2H-pyridin-1-ylmethyl]-2,3-dihydro-benzo[1,4]dioxine-5-carboxylic Acid Amide]
Ki [1]: 0.00496 µM
Ki [2]: 0.0646 µM
5-HT1A Function Imax (maximum inhibitory effect) [3, 4]: (61.0)
IC50 [3, 5]: 1.28 µM
melting point: 175 to 178 °C

NC(=O)c1cccc2c1OC(CN1CC=C(c3c[nH]c4ccc(F)cc34)CC1)CO2 (centres unmarked) [Example 11, 3-[4-(5-Fluoro-1H-indol-3-yl)-3,6-dihydro-2H-pyridin-1-ylmethyl]-2,3-dihydro-benzo[1,4]dioxine-5-carboxylic Acid Amide]
Ki [1]: 0.00313 µM
Ki [2]: 0.0706 µM
5-HT1A Function Imax (maximum inhibitory effect) [3, 4]: (60.0)
IC50 [3, 5]: 0.736 µM
melting point: 195 to 197 °C

Fc1cccc2c1OC(CN1CC=C(c3c[nH]c4ccccc34)CC1)CO2 (centres unmarked) [Example 12, 3-(1-{[8-Fluoro-2,3-dihydro-1,4-benzodioxin-2-yl]methyl}-1,2,3,6-tetrahydropyridin-4-yl)-1H-indole]
Ki [1]: 0.049 µM
Ki [2]: 0.0355 µM
5-HT1A Function Imax (maximum inhibitory effect) [3, 4]: (76.0)
IC50 [3, 5]: 0.521 µM
melting point: 174 to 177 °C

COc1ccc2c(c1)OC(CN1CC=C(c3c[nH]c4ccccc34)CC1)CO2 (centres unmarked) [Example 13, 3-(1-{[7-Methoxy-2,3-dihydro-1,4-benzodioxin-2-yl]methyl}-1,2,3,6-tetrahydropyridin-4-yl)-1H-indole]
Ki [1]: 0.04 µM
Ki [2]: 0.0173 µM
5-HT1A Function Imax (maximum inhibitory effect) [3, 4]: (100)
IC50 [3, 5]: 0.522 µM
melting point: 166 to 168 °C

COc1cccc2c1O[C@@H](CN1CC=C(c3c[nH]c4ccc(F)cc34)CC1)CO2 [Example 14, 5-Fluoro-3-[1-(8-methoxy-2,3-dihydro-benzo[1,4]dioxin-2-ylmethyl)-1,2,3,6-tetrahydro-pyradin-4-yl]-1H-indole]
Ki [1]: 0.00179 µM
Ki [2]: 0.00857 µM
5-HT1A Function Imax (maximum inhibitory effect) [3, 4]: (100)
IC50 [3, 5]: 0.07 µM
